Consider ten molecules from patent publication US20230014918A1, “COMPOSITIONS FOR USE AS ANTIOXIDANT” (priority 2019, published 2023).

For assay [1], the system named is mice mesenteric arteries. In words: Vascular reactivity of phenylephrine-precontracted mice mesenteric arteries. The assay is classed as cell-based. To be noted: for direct dose-dependent vasorelaxation compared with Healthberry 865 / vasorelaxation reached: single anthocyanins; for direct dose-dependent vasorelaxation compared with Healthberry 865: 1-100 μg/mL; for vasorelaxation reached: dose-response curves 1-100 μg/mL. Here is the method:
Aorta, carotid, femoral arteries and second-order branches of the mesenteric arterial tree were removed from mice to perform vascular studies. […] First, an analysis of vascular reactivity curves was performed. In particular, vasoconstriction was assessed with 80 mmol/L of KCI or with increasing doses of phenylephrine (from 10^-9 M to 10^-6 M) in control conditions. […] Caution was taken to avoid endothelial damage; functional integrity was reflected by the response to acetylcholine (from 10^-9 M to 10^-6 M).

Assay [2] deals with mice mesenteric arteries. The assay is described as follows: Total ROS production by dihydroethidium (DHE) in Angiotensin II-stimulated mice mesenteric arteries. Format: cell-based. To be noted: pre-treatment 50 μg/mL for 1 hour, then Angiotensin II for 15 minutes.
Description: (§1) Dihydroethidium (DHE, Life Technologies) was used to evaluate production of reactive oxygen species (ROS) in mouse mesenteric arteries, as previously described. Briefly, vessels were incubated with 5 μM of DHE for 20 min and subsequently observed under a fluorescence microscope (Zeiss). Images were acquired by a digital camera system (Olympus Soft Imaging Solutions). […] After treatment, vessels were incubated with Krebs solution containing 5 μM DHR123 for 30 min at 37° C., and then washed two times with PBS prior to fluorescence measurement using a fluorescence microplate reader (TECAN infinite 200 Pro).
In assay [3] the test system is mice mesenteric arteries. In words: Total ROS production by Dihydrorhodamine 123 (DHR123) in mouse vessels. Format: cell-based. To be noted: vessels stimulated with Angiotensin II.
Description: as §1
Assay [4] deals with NADPH oxidase. In words: NADPH oxidase activity, lucigenin-enhanced chemiluminescence assay in mesenteric arteries. The assay is classed as cell-based, mice. To be noted: after stimulation with Angiotensin II. Here is the method: Vessels were homogenized in a buffer containing protease inhibitors (mmol/L: 20 monobasic potassium phosphate, 1 EGTA, 0.01 aprotinin, 0.01 leupeptin, 0.01 pepstatin, 0.5 phenylmethylsulfonyl fluoride, pH 7.0). Protein content was measured in an aliquot of the homogenate by Bradford method. In some experiments, cells and vessels were pre-incubated with pharmacological inhibitors before measurements. The reaction was started by the addition of NADPH (0.1 mmol/l) and lucigenin (5 μmol/l) to each well. The chemiluminescence was measured using Tecan Infinite Pro M200 multimode microplate at 37° C.
Vessels were pre-treated with single anthocyanins (50 μg/mL) for 1 hours and then stimulated with Angiotensin II for 15 minutes prior to the acquisition. […] Data are expressed as increase of chemiluminescence per minute.

Assay [5] has as its system mice mesenteric arteries. The assay is described as follows: Evaluation of NO production by DAF-FM in mice mesenteric arteries. Format: cell-based. To be noted: single anthocyanins 50 μg/mL. On the procedure:
Production of NO was assessed as previously described (Carrizzo et al. 2016). […] Mesenteric segments were cut in 5-μm thick sections, observed under a fluorescence microscope, subsequently counterstained with haematoxylin and eosin and observed under a light microscope.
Scale bar, 50 μm. E) Semiquantitative analyses of immunoblots of mice mesenteric arteries treated with HB (100 μg/mL) alone, or HB plus Akt inhibitor or LY294002, columns are the mean±SEM of three independent experiments. Statistical analyses were performed using two-way ANOVA followed Bonferroni post-hoc test. *p<0.05; **p<0.01, ***p<0.001.

Entries after “also recorded” stand apart in the source; their conditions may differ.

As to `OC[C@H]1O[C@@H](Oc2cc3c(O)cc(O)cc3[o+]c2-c2ccc(O)c(O)c2)[C@H](O)[C@@H](O)[C@@H]1O` [C3-glu, Cyanidin-3-glucoside], in assay [1], the “direct dose-dependent vasorelaxation compared with Healthberry 865” value was “none of the single anthocyanins was able to evoke a dose-dependent vasorelaxation comparable”. For the same molecule, the “Angiotensin II-induced ROS formation (DHE)” value in assay [2] was “able to reproduce the antioxidant action of Healthberry 865®”. Also, the “total ROS production (DHR123)” value in assay [3] is “a similar effect was reproduced”. The “NADPH oxidase (NOX) activity” value in assay [4] was “able to reduce NOX activity; also recorded: most powerful anthocyanins closer to the potent effect of Healthberry 865®”.

Take `OC[C@H]1O[C@@H](Oc2cc3c(O)cc(O)cc3[o+]c2-c2ccc(O)c(O)c2)[C@H](O)[C@@H](O)[C@H]1O` [C3-gal, Cyanidin-3-galactoside]: the “vasorelaxant effect in presence of Akt inhibitor” value in assay [1] (increasing doses, Akt inhibitor) is reported as “did not inhibit C3-gal vascular action”. For the same molecule, the “vasorelaxant effect in presence of PI3K inhibitor LY294002” value in assay [1] (increasing doses, pre-treatment with LY294002) was “did not inhibit C3-gal vascular action”. Also, the “vasorelaxant effect in presence of L-NAME” value in assay [1] (increasing doses, pre-treatment with eNOS inhibitor L-NAME) is “significantly reduced its vasorelaxant properties”. Besides, the “vasorelaxant effect in presence of Dorsomorphin” value in assay [1] (increasing doses, selective AMPK inhibitor Dorsomorphin) is listed as “completely lost its vasorelaxant capability”. In addition, in assay [1], the “direct dose-dependent vasorelaxation compared with Healthberry 865” value is on record as “very similar to that induced by Healthberry 865®”. The “nitric oxide production (DAF-FM fluorescence)” value in assay [5] is recorded as “significant increase of nitric oxide production”.

For Peonidin-3-galactoside [PEO3-gal], in assay [1], the “direct dose-dependent vasorelaxation compared with Healthberry 865” value was “none of the single anthocyanins was able to evoke a dose-dependent vasorelaxation comparable”. The “Angiotensin II-induced ROS formation (DHE)” value in assay [2] was “able to reproduce the antioxidant action of Healthberry 865®”. For the same molecule, in assay [3], the “total ROS production (DHR123)” value is recorded as “a similar effect was reproduced”. The “NADPH oxidase (NOX) activity” value in assay [4] is on record as “able to reduce NOX activity”.

Regarding `OC[C@H]1O[C@@H](Oc2cc3c(O)cc(O)cc3[o+]c2-c2cc(O)c(O)c(O)c2)[C@H](O)[C@@H](O)[C@@H]1O` [DP3-glu, Delphinidin-3-glucoside], the “direct dose-dependent vasorelaxation compared with Healthberry 865” value in assay [1] is listed as “none of the single anthocyanins was able to evoke a dose-dependent vasorelaxation comparable”. Besides, the “Angiotensin II-induced ROS formation (DHE)” value in assay [2] is reported as “able to reproduce the antioxidant action of Healthberry 865®”. In assay [3], the “total ROS production (DHR123)” value is given as “a similar effect was reproduced”. In addition, in assay [4], the “NADPH oxidase (NOX) activity” value is “able to reduce NOX activity”.

For the molecule `C[C@@H]1O[C@@H](OC[C@H]2O[C@@H](Oc3cc4c(O)cc(O)cc4[o+]c3-c3ccc(O)c(O)c3)[C@H](O)[C@@H](O)[C@@H]2O)[C@H](O)[C@H](O)[C@H]1O` [C3-rut, Cyanidin-3-rutinoside], in assay [1], the “direct dose-dependent vasorelaxation compared with Healthberry 865” value was “none of the single anthocyanins was able to evoke a dose-dependent vasorelaxation comparable; also recorded: vasorelaxant effects evoked by DP3-gal, C3-rut and DP3-ara were observed”; the vasorelaxation reached is ~36,5%. Also, the “Angiotensin II-induced ROS formation (DHE)” value in assay [2] was “able to reproduce the antioxidant action of Healthberry 865®”. Moreover, in assay [3], the “total ROS production (DHR123)” value is “a similar effect was reproduced”. In addition, in assay [4], the “NADPH oxidase (NOX) activity” value is listed as “able to reduce NOX activity”.

Consider `Oc1cc(O)c2cc(O[C@H]3OC[C@H](O)[C@H](O)[C@H]3O)c(-c3cc(O)c(O)c(O)c3)[o+]c2c1` [DP3-ara, Delphinidin-3-arabinoside], for which, in assay [1], the “direct dose-dependent vasorelaxation compared with Healthberry 865” value was “none of the single anthocyanins was able to evoke a dose-dependent vasorelaxation comparable; also recorded: vasorelaxant effects evoked by DP3-gal, C3-rut and DP3-ara were observed”.

For `COc1cc(-c2[o+]c3cc(O)cc(O)c3cc2O[C@@H]2O[C@H](CO)[C@H](O)[C@H](O)[C@H]2O)cc(OC)c1O` [MAL3-gal, Malvidin-3-galactoside], the “direct dose-dependent vasorelaxation compared with Healthberry 865” value in assay [1] is “none of the single anthocyanins was able to evoke a dose-dependent vasorelaxation comparable”. Moreover, in assay [2], the “Angiotensin II-induced ROS formation (DHE)” value was “able to reproduce the antioxidant action of Healthberry 865®”. In addition, in assay [3], the “total ROS production (DHR123)” value is on record as “a similar effect was reproduced”. Besides, the “NADPH oxidase (NOX) activity” value in assay [4] was “able to reduce NOX activity”.

Regarding `OC[C@H]1O[C@@H](Oc2cc3c(O)cc(O)cc3[o+]c2-c2cc(O)c(O)c(O)c2)[C@H](O)[C@@H](O)[C@H]1O` [DP3-gal, Delphinidin-3-galactoside], in assay [1], the “direct dose-dependent vasorelaxation compared with Healthberry 865” value is “none of the single anthocyanins was able to evoke a dose-dependent vasorelaxation comparable; also recorded: vasorelaxant effects evoked by DP3-gal, C3-rut and DP3-ara were observed”; the vasorelaxation reached entry is recorded as “about 32,5%”.

As for `COc1cc(-c2[o+]c3cc(O)cc(O)c3cc2O[C@@H]2O[C@H](CO)[C@@H](O)[C@H](O)[C@H]2O)cc(O)c1O` [PT3-glu, Petunidin-3-glucoside], the “direct dose-dependent vasorelaxation compared with Healthberry 865” value in assay [1] is reported as “none of the single anthocyanins was able to evoke a dose-dependent vasorelaxation comparable”.

On to `COc1cc(-c2[o+]c3cc(O)cc(O)c3cc2O[C@@H]2O[C@H](CO)[C@@H](O)[C@H](O)[C@H]2O)cc(OC)c1O` [MAL3-glu, Malvidin-3-glucoside], for which, in assay [1], the “direct dose-dependent vasorelaxation compared with Healthberry 865” value is given as “none of the single anthocyanins was able to evoke a dose-dependent vasorelaxation comparable”. Further, in assay [2], the “Angiotensin II-induced ROS formation (DHE)” value is given as “able to reproduce the antioxidant action of Healthberry 865®”. Moreover, the “total ROS production (DHR123)” value in assay [3] was “a similar effect was reproduced”. In addition, in assay [4], the “NADPH oxidase (NOX) activity” value is on record as “able to reduce NOX activity; also recorded: most powerful anthocyanins closer to the potent effect of Healthberry 865®”.
